In brackets after ≈: the same amount, converted by molar mass. Like-named read-outs stand apart in the source and are kept apart here. Each block holds one compound with its values, some of them ahead of it. Residues, ends and D or L forms follow the SMILES beside them.
Columns and labels:
[1] = tested on: A. baumannii; experiment: microbe, parasite or virus in culture
Method in brief: (§1)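 Broth microdilution in MHB, 2-fold 12-point series from 128 or 64 down to 0.06 or 0.03 μg mL^−1, 5 × 10^5 CFU mL^−1. Extra runs in CAMHB per CLSI and in MHB with 1% agarose; n ≥ 6.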

[2] = tested on: C. albicans; experiment: microbe, parasite or virus in culture; details: for MIC: Candida albicans
[3] = tested on: C. neoformans; experiment: microbe, parasite or virus in culture; details: for MIC: Cryptococcus neoformans, ATCC208821, read-out: BMD MIC, C. neoformans ATCC 208821 H99
[4] = tested on: E. coli; experiment: microbe, parasite or virus in culture
Method in brief: as §1

[5] = tested on: K. pneumoniae; experiment: microbe, parasite or virus in culture
Method in brief: as §1

[6] = tested on: L. monocytogenes; experiment: microbe, parasite or virus in culture
Method in brief: as §1

[7] = tested on: P. aeruginosa; experiment: microbe, parasite or virus in culture
Method in brief: as §1

[8] = tested on: S. enterica Typhi; experiment: microbe, parasite or virus in culture; details: Typhi
Method in brief: as §1

[9] = tested on: E. coli ATCC 25922; experiment: microbe, parasite or virus in culture; type: cell-based, Escherichia coli; details: ATCC 25922
Method: Assays were performed in Mueller Hinton broth (MHB; BD, Cat. No. 211443) for bacteria, and yeast extract-peptone dextrose (YPD; Sigma-Aldrich, Y1500) for yeast. The concentrations of the peptides and comparator antibiotics/antifungals in the assay wells ranged from either 128 or 64 μg mL^−1, to 0.06 or 0.03 μg mL^−1 as a 12-point dose response plated as a 2-fold dilution series across the wells of the plate in duplicate for each independent biological replicate, using a final cell density of 5 × 10^5 CFU mL^−1 and 2.5 × 10^3 CFU mL^−1 for bacteria and yeast respectively. Final assay volumes were 100 μL per well with MICs determined visually following 18-20 h incubation at 37 °C for bacteria, 24 h incubation at 35 °C for Candida albicans, and 24 h incubation at 35 °C with resazurin addition (0.006%; Sigma-Aldrich, Cat # R7017) for a further 3 h for Cryptococcus neoformans, without shaking. Additional bacterial and yeast susceptibility assays were performed in Cation-Adjusted Mueller Hinton Broth (CAMHB; BD, Cat No. 212322) and Roswell Park Memorial Institute (RPMI) 1640 culture medium (Life Technologies Australia, Cat No. 21870092), respectively, as recommended by CLSI guidelines (M07 11th ed[36] and M27 4th ed[37]). […] However, for yeast it was determined that the YPD media was more reliable and robust between repeats and therefore MICs in this media are reported. […] Agarose MICs were determined in MHB with 1% agarose (Bioline molecular grade; Cat no: BIO-41025; high purity, high gel strength). All experiments were performed a minimum of six replicates (n ≥ 6).

[10] = in vitro; details: human
Method: (§2) HEK-293 human embryonic kidney cells (ATCC CRL-1573), HepG2 liver hepatocellular carcinoma cells (ATCC HB-8065), and HK-2 human kidney proximal tubule cells (ATCC CRL-2190) cell lines were purchased from ATCC. Cytotoxicity of arenicin-3 variants was determined using the Alamar Blue (resazurin; Sigma-Aldrich, Cat # R7017), with 1% FBS for HK-2 and 10% FBS for HEK-293, and HepG2[40]. Cells were seeded as 2000 cells per well in black wall clear bottom 384-well plates (Corning®, Costar®, Cat # 3712). The cells were incubated for 24 h at 37 °C, 5% CO2. Then peptides were added into each cell containing well. After 24 h incubation, 5 μM resazurin were added per well and incubated at 37 °C for 2 h. Then the fluorescence intensity (FI) was read using a Polarstar® Omega plate reader with excitation/emission 560/590 and CC50 values were determined using Prism 8 following curve fitting and applying the following equation: Percentageviability = (FITEST-FINegative/FIUNTREATED-FINegative)×100.
(§3) Hemolytic activity was measured against isolated human erythrocytes from anonymously donated fresh human blood. Isolated erythrocytes were adjusted to 1 × 10^9 blood cells mL^−1 in phosphate-buffered saline (PBS, pH 7.4), added to the wells of NUNC polypropylene round-bottom 96-well plates (Sigma-Aldrich, Cat # P6866) then up to 300 μg mL^−1 of compound was added per well and incubated for 3 h at 37 °C. Following incubation, samples were centrifuged at 3000 rpm for 20 min, and the supernatants, 100 μL, were carefully collected for measurement. The degree of hemolysis in the samples was determined by measurement of the absorption of the supernatants at 540 nm using the Polarstar-Omega plate reader. 1% Triton-X100 was used as positive control for inducing 100% hemolysis. HC10 and HC50 values were determined using Prism 8 following curve fitting. The use of human blood (sourced from the Australian Red Cross Blood Service) for hemolysis assays was approved by the University of Queensland Institutional Human Research Ethics Committee, Approval Number 2014000031. All in vitro toxicity assays were performed for two independent biological replicates as an 8-point dose response of 3-fold dilution series in triplicate with the highest test concentration of 300 μg mL^−1.

[11] = tested on: HEK-293 human embryonic kidney cells; experiment: in vitro
Method: as §2, §3

[12] = tested on: HK-2 human kidney proximal tubule cells; experiment: in vitro
Method: as §2, §3

[13] = tested on: HepG2 liver hepatocellular carcinoma cells; experiment: in vitro
Method: as §2, §3

[14] = tested on: human erythrocytes (HRBC); type: cell-based; details: for Heamolysis HC10: red cells of human, 3 h
[15] = tested on: E. coli K12 MG1655; experiment: ATP release, BacTiter-Glo luminescence; type: cell-based, Escherichia coli; details: E. coli K12, X = xMIC, 24 Y values
Method: ATP was measured using the BacTiter-Glo^TM Microbial Cell Viability Assay (Promega) following the manufacturer’s instructions. The assay was performed for three biological replicates at 37 °C, with luminescence recorded using a Tecan Infinite M1000 Pro plate reader. The fold reduction of ATP was calculated as: Fold reduction ATP = 1 − (Ltreat − Lmedia/Lcontrol − Lmedia); where Ltreat is the luminescence of treated cells, Lmedia is the luminescence of CAMHB without cells, and Lcontrol is the luminescence of untreated cells. Resultant graphs show mean (n = 7) and std error for each data point, prepared in Prism 8. DMSO was included as a control as piperacillin was solubilized in DMSO, with final assay concentration of 2.5%.

[16] = fit headed 10 min, four-parameter variable slope
[17] = fit headed 30 min, four-parameter variable slope
[18] = fit headed 60 min, four-parameter variable slope

Compound: CC[C@H](C)[C@@H]1NC(=O)[C@H](CCCNC(=N)N)NC(=O)[C@H](C(C)C)NC(=O)CNC(=O)[C@H](CC(N)=O)NC(=O)[C@H](CCCNC(=N)N)NC(=O)[C@H](Cc2ccc(O)cc2)NC(=O)[C@H](C(C)C)NC(=O)[C@@H]2CSSC[C@H](NC1=O)C(=O)N[C@@H](Cc1c[nH]cn1)C(=O)N[C@@H](CCCNC(=N)N)C(=O)N[C@@H](CCCNC(=N)N)C(=O)N[C@H](C(=O)N[C@@H](CC(N)=O)C(=O)O)CSSC[C@H](NC(=O)[C@H](Cc1ccccc1)NC(=O)CN)C(=O)N[C@@H](Cc1c[nH]c3ccccc13)C(=O)N[C@@H](CC(N)=O)C(=O)N[C@@H](C(C)C)C(=O)N2 [NZ17211] (HELM PEPTIDE1{G.F.C.W.N.V.C.V.Y.R.N.G.V.R.I.C.H.R.R.C.N}$PEPTIDE1,PEPTIDE1,3:R3-20:R3|PEPTIDE1,PEPTIDE1,7:R3-16:R3$$$V2.0)
- BMD MIC [1]: 4 µg/mL
- BMD MIC [2]: >32 µg/mL
- BMD MIC ([2]; 24 h): 64 µg/mL
- BMD MIC [3]: 4 µg/mL
- MIC against ESBL producing E. coli DSA 443 [4]: 2.0 µg/mL (≈ 0.784 µM)
- BMD MIC [5]: 2 µg/mL
- BMD MIC [6]: 16 µg/mL
- BMD MIC [7]: 2 µg/mL
- BMD MIC [8]: 1 µg/mL
- MIC, MHB [9]: 0.5 µg/mL (≈ 0.196 µM)
- CC50 at 24 h ([10]; HEK-293 cells): > 300 µg/mL
- CC50 at 24 h ([10]; HK-2 cells): > 250 µg/mL
- CC50 at 24 h ([10]; HepG2 cells): > 300 µg/mL
- CC50 HEK293 [11]: >300 µg/mL
- CC50 HEK293, Mean [11]: >300 µg/mL
- CC50 HK2 [12]: >255 µg/mL
- CC50 HK2, Mean [12]: >250 µg/mL
- CC50 HepG2 [13]: >300 µg/mL
- CC50 HepG2, Mean [13]: >300 µg/mL
- Heamolysis HC10, Mean [14]: >300 µg/mL
- Heamolysis HC10 [14]: >300 µg/mL

Compound: CCN1CCN(C(=O)N[C@@H](C(=O)N[C@@H]2C(=O)N3[C@@H]2SC(C)(C)[C@@H]3C(=O)O)c2ccccc2)C(=O)C1=O [piperacillin]
- MIC ([4]; Escherichia coli, ATCC700926|MG1655, read-out: BMD MIC, E. coli ATCC 700926 K12 (MG1655), CAMHB, mode of 6 replicates): 2 µg/mL (≈ 3.86 µM)
- ATP release, nonlinear fit: HillSlope [15, 16]: ~ -467.9
- ATP release, nonlinear fit: IC50 [15, 16]: ~ 31.42 xMIC
- ATP release, nonlinear fit: LogIC50 [15, 16]: ~ 1.497
- ATP release, nonlinear fit: Top [15, 16]: 0.08165
- ATP release, nonlinear fit: Bottom ([15]; fit headed 10 min, log(inhibitor) vs. response, variable slope (four parameters)): 0.04818
- ATP release, nonlinear fit: Bottom [15, 17]: ~ 0.04736
- ATP release, nonlinear fit: IC50 [15, 17]: ~ 0.000 xMIC
- ATP release, nonlinear fit: Top [15, 17]: 0.07515
- ATP release, nonlinear fit: Bottom [15, 18]: 0.00107
- ATP release, nonlinear fit: HillSlope [15, 18]: ~ 0.6194
- ATP release, nonlinear fit: LogIC50 [15, 18]: ~ 16.74
- ATP release, nonlinear fit: Top [15, 18]: 0.1665

- MIC ([2]; ATCC90028, 24 h, read-out: BMD MIC): 1 µg/mL (≈ 3.27 µM)
- MIC ([2]; ATCC90028, read-out: BMD MIC): 0.5 µg/mL (≈ 1.63 µM)
- MIC ([3]; RPMI, mode of 6 replicates): 2 µg/mL (≈ 6.53 µM)
- MIC ([3]; YPD, 24 h 35 °C + resazurin 3 h, mode of 6 replicates): 8 µg/mL
Compound: OC(Cn1cncn1)(Cn1cncn1)c1ccc(F)cc1F [Fluconazole, reference compound]

Compound: CC(C)[C@@H]1NC(=O)CNC(=O)[C@H](CC(N)=O)NC(=O)[C@H](CCCNC(=N)N)NC(=O)[C@H](CCCNC(=N)N)NC(=O)[C@H](C(C)C)NC(=O)[C@@H]2CSSC[C@H](NC(=O)[C@H](C(C)C)NC(=O)[C@H](CCCNC(=N)N)NC1=O)C(=O)N[C@@H](Cc1c[nH]cn1)C(=O)N[C@@H](CCCNC(=N)N)C(=O)N[C@@H](CCCNC(=N)N)C(=O)N[C@H](C(=O)N[C@@H](CC(N)=O)C(=O)O)CSSC[C@H](NC(=O)[C@H](Cc1ccccc1)NC(=O)CN)C(=O)N[C@@H](Cc1c[nH]c3ccccc13)C(=O)N[C@@H](CC(N)=O)C(=O)N[C@@H](C(C)C)C(=O)N2 [NZ17143] (HELM PEPTIDE1{G.F.C.W.N.V.C.V.R.R.N.G.V.R.V.C.H.R.R.C.N}$PEPTIDE1,PEPTIDE1,3:R3-20:R3|PEPTIDE1,PEPTIDE1,7:R3-16:R3$$$V2.0)
- BMD MIC [1]: 2 µg/mL
- BMD MIC [2]: >32 µg/mL
- BMD MIC ([2]; 24 h): 32 µg/mL
- BMD MIC [3]: 4 µg/mL
- MIC against ESBL producing E. coli DSA 443 [4]: 0.5 µg/mL (≈ 0.198 µM)
- BMD MIC [5]: 1 µg/mL
- BMD MIC [6]: 8 µg/mL
- BMD MIC [7]: 1 µg/mL
- BMD MIC [8]: 0.5 µg/mL
- MIC, MHB [9]: 0.25 µg/mL (≈ 0.0988 µM)
- CC50 at 24 h ([10]; HEK-293 cells): > 300 µg/mL
- CC50 at 24 h ([10]; HK-2 cells): > 250 µg/mL
- CC50 at 24 h ([10]; HepG2 cells): > 300 µg/mL
- CC50 HEK293 [11]: >300 µg/mL
- CC50 HEK293, Mean [11]: >300 µg/mL
- CC50 HK2 [12]: >253 µg/mL
- CC50 HK2, Mean [12]: >250 µg/mL
- CC50 HepG2 [13]: >300 µg/mL
- CC50 HepG2, Mean [13]: >300 µg/mL
- Heamolysis HC10, Mean [14]: >300 µg/mL
- Heamolysis HC10 [14]: >300 µg/mL

- BMD MIC ([2]; C. albicans ATCC 90028 NCCLS 11, RPMI, mode of 6 replicates): 0.5 µg/mL
- BMD MIC ([2]; C. albicans ATCC 90028 NCCLS 11, YPD, 24 h 35 °C, mode of 6 replicates): 1 µg/mL
- BMD MIC ([3]; C. neoformans ATCC 208821 H99, RPMI, mode of 6 replicates): 0.5 µg/mL
- BMD MIC ([3]; C. neoformans ATCC 208821 H99, YPD, 24 h 35 °C + resazurin 3 h, mode of 6 replicates): 0.5 µg/mL
Compound: C[C@@H]1[C@H](O)[C@@H](C)/C=C/C=C/C=C/C=C/C=C/C=C/C=C/[C@H](O[C@@H]2O[C@H](C)[C@@H](O)[C@H](N)[C@@H]2O)C[C@@H]2O[C@](O)(C[C@@H](O)C[C@@H](O)[C@H](O)CC[C@@H](O)C[C@@H](O)CC(=O)O[C@H]1C)C[C@H](O)[C@H]2C(=O)O [Amphroterocin B, reference compound]
